What was measured:
ALK5 kinase = target: T1, ALK5 kinase (Homo sapiens, UniProt P36897); experiment: LanthaScreen Eu Kinase Binding Assay; conditions: Kinase Tracer 178, Eu-anti-GST Antibody, read-out: IC50 Enzyme
T1 sequence (P36897 34-503): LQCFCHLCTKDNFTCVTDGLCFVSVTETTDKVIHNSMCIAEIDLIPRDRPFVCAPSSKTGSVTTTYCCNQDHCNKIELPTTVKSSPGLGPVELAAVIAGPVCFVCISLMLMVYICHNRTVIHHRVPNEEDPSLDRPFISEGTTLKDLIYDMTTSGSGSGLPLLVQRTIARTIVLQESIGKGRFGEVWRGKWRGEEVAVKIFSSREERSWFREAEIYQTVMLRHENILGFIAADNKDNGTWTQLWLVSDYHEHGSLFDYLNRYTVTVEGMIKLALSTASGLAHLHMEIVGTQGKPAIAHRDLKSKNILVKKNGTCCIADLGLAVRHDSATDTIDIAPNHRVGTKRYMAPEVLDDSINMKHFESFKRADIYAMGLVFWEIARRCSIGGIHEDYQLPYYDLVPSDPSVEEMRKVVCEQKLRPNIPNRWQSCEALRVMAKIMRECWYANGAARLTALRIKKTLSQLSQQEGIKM
Protocol: [Example 1] LanthaScreen Eu Kinase Binding Assay
4 μL of 4× Test Compound in 4% DMSO and 4 μL of 4× Kinase in Kinase buffer were added to wells (low volume, white 384-well plate (Greiner Cat. #784207)). The plate was shaken for 30 seconds, centrifuged for 10 seconds at 1000 rpm, and incubated at RT for 30 minutes. Then, 4 μL of 4× Eu-anti-GST Antibody and 4 μL of 4× Kinase Tracer 178 were added to the wells. The plate was shaken for 30 seconds, centrifuged for 10 seconds at 1000 rpm, and incubated at RT for 60 minutes. Fluorescence was measured by a plate reader, Biotek Synergy H1 (Vermont, USA) under the following conditions. • Excitation: 340 nm (3 nm bandpass) • Kinase tracer emission: 665 nm (10 nm bandpass) • Eu Ab emission: 615 nm (10 nm bandpass) • Emission ratio=665 nm (tracer)/615 nm (Eu Ab) • The higher the binding affinity of compound to ALK5 kinase is, the less the emission ratio is.

TGF-β signaling = experiment: Assay for evaluating cellular inhibition of TGF-β signaling, 4T1 (SBE-luc2P) luciferase reporter; assay type: cell-based; conditions: Mus musculus, 4T1, 4T1 (SBE-luc2P) transient pool, 0.2% FBS, 2 h pre-treatment, TGF-β1 2 ng/mL 24 h; read-out: IC50 4T1 Cell
How it was run: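 Luminescence from SMAD-binding-element luciferase was measured after 24 h of 2 ng/mL TGF-β1 at 37 °C, following 2 h compound pre-treatment. HEK293 stable reporter cells were used at 2.5×10^4/well in 0.5% FBS (~80% confluent); the 4T1 SBE-luc2P transient pool at 6×10^3/well in 0.2% FBS (~60% confluent).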

IC50 (ALK5 kinase) [nM] | IC50 (TGF-β signaling) [nM] | Compound
< 100 | < 100 | O=C(O)c1ccc(Nc2cc(Oc3sc(C4CC4)nc3-c3ccccc3)ccn2)cc1 [A-136, 4-((4-((2-Cyclopropyl-4-phenylthiazol-5-yl)oxy)pyridin-2-yl)amino)benzoic acid]
< 100 | > 100 | COC(=O)c1cccc(Nc2cc(Oc3sc(N)nc3-c3ccccc3)ccn2)c1 [A-3, Methyl 3-((4-((2-amino-4-phenylthiazol-5-yl)oxy)pyridin-2-yl)amino)benzoate]
< 100 | > 100 | NS(=O)(=O)c1ccc(Nc2cc(Oc3sc(C4CC4)nc3-c3ccccc3)ccn2)cc1 [A-118, 4-((4-((2-Cyclopropyl-4-phenylthiazol-5-yl)oxy)pyridin-2-yl)amino)benzenesulfonamide]
< 100 | < 100 | Cc1nc(-c2ccccc2)c(Oc2ccnc(Nc3cccc(S(N)(=O)=O)c3)c2)s1 [A-58, 3-((4-((2-Methyl-4-phenylthiazol-5-yl)oxy)pyridin-2-yl)amino)benzenesulfonamide]
< 100 | < 100 | Cc1nc(-c2ccccc2)c(Oc2ccnc(Nc3cncc(C(N)=O)c3)c2)s1 [A-92, 5-((4-((2-Methyl-4-phenylthiazol-5-yl)oxy)pyridin-2-yl)amino)nicotinamide]
< 100 | < 100 | CS(=O)(=O)Nc1cccc(Nc2cc(Oc3sc(N)nc3-c3ccccc3)ccn2)c1 [A-14, N-(3-((4-((2-Amino-4-phenylthiazol-5-yl)oxy)pyridin-2-yl)amino)phenyl)methanesulfonamide]
< 100 | < 100 | CNc1nc(-c2cccc(C)n2)c(Oc2ccnc(Nc3cccc(S(N)(=O)=O)c3)c2)s1 [A-292, 3-((4-((2-(Methylamino)-4-(6-methylpyridin-2-yl)thiazol-5-yl)oxy)pyridin-2-yl)amino)benzenesulfonamide]
< 100 | > 100 | CNc1nc(-c2ccccc2)c(Oc2ccnc(Nc3ccc(C(N)=O)cc3)c2)s1 [A-310, 4-((4-((2-(Methylamino)-4-phenylthiazol-5-yl)oxy)pyridin-2-yl)amino)benzamide]
< 100 | > 100 | CCc1nc(-c2ccccc2)c(Oc2ccnc(Nc3ccc(C(N)=O)cc3)c2)s1 [A-185, 4-((4-((2-Ethyl-4-phenylthiazol-5-yl)oxy)pyridin-2-yl)amino)benzamide]
< 100 | < 100 | CCc1nc(-c2cccc(C)n2)c(Oc2ccnc(Nc3cccc(C(=O)O)c3)c2)s1 [A-257, 3-((4-((2-Ethyl-4-(6-methylpyridin-2-yl)thiazol-5-yl)oxy)pyridin-2-yl)amino)benzoic acid]
< 100 | > 100 | CCc1nc(-c2cccc(C)n2)c(Oc2ccnc(Nc3cncc(C(=O)O)c3)c2)s1 [A-260, 5-((4-((2-Ethyl-4-(6-methylpyridin-2-yl)thiazol-5-yl)oxy)pyridin-2-yl)amino)nicotinic acid]
< 100 | > 100 | CC(C)(O)c1ccc(Nc2cc(Oc3sc(N)nc3-c3ccccc3)ccn2)cn1 [A-43, 2-(5-((4-((2-Amino-4-phenylthiazol-5-yl)oxy)pyridin-2-yl)amino)pyridin-2-yl)propan-2-ol]
< 100 | < 100 | CCc1nc(-c2ccccc2)c(Oc2ccnc(Nc3ccc(C(=O)NC)cc3)c2)s1 [A-189, 4-((4-((2-Ethyl-4-phenylthiazol-5-yl)oxy)pyridin-2-yl)amino)-N-methylbenzamide]
< 100 | < 100 | Cc1cccc(-c2nc(C3CC3)sc2Oc2ccnc(Nc3cccc(C(N)=O)c3)c2)n1 [A-274, 3-((4-((2-Cyclopropyl-4-(6-methylpyridin-2-yl)thiazol-5-yl)oxy)pyridin-2-yl)amino)benzamide]
< 100 | < 100 | O=C(O)c1cccc(Nc2cc(Oc3sc(C4CC4)nc3-c3ccccc3)ccn2)n1 [A-134, 6-((4-((2-Cyclopropyl-4-phenylthiazol-5-yl)oxy)pyridin-2-yl)amino)picolinic acid]
< 100 | > 100 | O=C(NO)c1ccc(Nc2cc(Oc3sc(C4CC4)nc3-c3ccccc3)ccn2)cc1 [A-139, 4-((4-((2-Cyclopropyl-4-phenylthiazol-5-yl)oxy)pyridin-2-yl)amino)-N-hydroxybenzamide]

IC50 (ALK5 kinase) [nM] | IC50 (TGF-β signaling) [nM] | Compound
> 100 | > 100 | NC(=O)c1ccc(Nc2cc(Oc3sc(NC4CC4)nc3-c3ccccc3)ccn2)cc1 [A-47, 4-((4-((2-(Cyclopropylamino)-4-phenylthiazol-5-yl)oxy)pyridin-2-yl)amino)benzamide]
< 100 | < 100 | CC(C)c1nc(-c2ccccc2)c(Oc2ccnc(Nc3ccc(C(=O)O)cc3)c2)s1 [A-231, 4-((4-((2-Isopropyl-4-phenylthiazol-5-yl)oxy)pyridin-2-yl)amino)benzoic acid]
> 100 | > 100 | Nc1nc(-c2ccc3ccccc3c2)c(Oc2ccnc(Nc3cccc(S(N)(=O)=O)c3)c2)s1 [A-234, 3-((4-((2-Amino-4-(naphthalen-2-yl)thiazol-5-yl)oxy)pyridin-2-yl)amino)benzenesulfonamide]
< 100 | > 100 | O=C(O)c1cccc(Nc2cc(Oc3sc(NC4CC4)nc3-c3ccccc3)ccn2)c1 [A-48, 3-((4-((2-(Cyclopropylamino)-4-phenylthiazol-5-yl)oxy)pyridin-2-yl)amino)benzoic acid]
< 100 | > 100 | Cc1nc(-c2ccccc2)c(Oc2ccnc(Nc3ccc(C(C)(C)O)nc3)c2)s1 [A-65, 2-(5-((4-((2-Methyl-4-phenylthiazol-5-yl)oxy)pyridin-2-yl)amino)pyridin-2-yl)propan-2-ol]
< 100 | < 100 | Cc1cccc(-c2nc(C)sc2Oc2ccnc(Nc3cccc(C(C)(C)C(=O)O)c3)c2)n1 [A-309, 2-Methyl-2-(3-((4-((2-methyl-4-(6-methylpyridin-2-yl)thiazol-5-yl)oxy)pyridin-2-yl)amino)phenyl)propanoic acid]
< 100 | < 100 | CCc1nc(-c2ccccc2)c(Oc2ccnc(Nc3cccc(C(N)=O)c3)c2)s1 [A-183, 3-((4-((2-Ethyl-4-phenylthiazol-5-yl)oxy)pyridin-2-yl)amino)benzamide]
< 100 | < 100 | CNC(=O)c1ccc(Nc2cc(Oc3sc(C4CC4)nc3-c3ccccc3)ccn2)cc1 [A-126, 4-((4-((2-Cyclopropyl-4-phenylthiazol-5-yl)oxy)pyridin-2-yl)amino)-N-methylbenzamide]
> 100 | < 100 | CCc1nc(-c2cccc(C)n2)c(Oc2ccnc(Nc3cccc(C(=O)O)n3)c2)s1 [A-254, 6-((4-((2-Ethyl-4-(6-methylpyridin-2-yl)thiazol-5-yl)oxy)pyridin-2-yl)amino)picolinic acid]
< 100 | > 100 | CN(C)c1nc(-c2ccccc2)c(Oc2ccnc(Nc3ccc(C(C)(C)O)nc3)c2)s1 [A-159, 2-(5-((4-((2-(Dimethylamino)-4-phenylthiazol-5-yl)oxy)pyridin-2-yl)amino)pyridin-2-yl)propan-2-ol]
< 100 | > 100 | Cc1cccc(-c2nc(N)sc2Oc2ccnc(Nc3ccc(C(=O)O)cc3)c2)n1 [A-248, 4-((4-((2-Amino-4-(6-methylpyridin-2-yl)thiazol-5-yl)oxy)pyridin-2-yl)amino)benzoic acid]
< 100 | < 100 | CCc1nc(-c2cccc(C)n2)c(Oc2ccnc(Nc3cccc(C(N)=O)c3)c2)s1 [A-258, 3-((4-((2-Ethyl-4-(6-methylpyridin-2-yl)thiazol-5-yl)oxy)pyridin-2-yl)amino)benzamide]
< 100 | < 100 | CS(=O)(=O)Nc1ccc(Nc2cc(Oc3sc(C4CC4)nc3-c3ccccc3)ccn2)nc1 [A-127, N-(6-((4-((2-Cyclopropyl-4-phenylthiazol-5-yl)oxy)pyridin-2-yl)amino)pyridin-3-yl)methanesulfonamide]
< 100 | < 100 | CNC(=O)c1ccc(Nc2cc(Oc3sc(C(C)C)nc3-c3ccccc3)ccn2)nc1 [A-228, 6-((4-((2-Isopropyl-4-phenylthiazol-5-yl)oxy)pyridin-2-yl)amino)-N-methylnicotinamide]
< 100 | < 100 | NC(=O)c1cccc(Nc2cc(Oc3sc(C4CC4)nc3-c3ccccc3)ccn2)c1 [A-117, 3-((4-((2-Cyclopropyl-4-phenylthiazol-5-yl)oxy)pyridin-2-yl)amino)benzamide]

Source: patent US20250206730A1 (AUTOTELIC BIO INC., priority 2022, published 2025)
